In article PMC12339163, “Combining Plant Bioactives With Antibiotics for Enhanced Antibiofilm Activity Against Uropathogenic Staphylococcus spp. and Cytotoxicity Evaluation” (Advances in Pharmacological and Pharmaceutical Sciences, 2025):
In brackets after ≈: the same amount, converted by molar mass. Several values for one entry are separate records, joined by “and”; a condition that tells them apart may be missing. Equal entries are not always repeated. Where two headings read alike, the source gives them in different places.

Assays:
S. aureus biofilm [1] = experiment: Biofilm eradication assay (MBEC, MTT); format: cell-based, Staphylococcus aureus; conditions: geometric mean, S. aureus (n = 3); for minimal effective concentration: Staphylococcus aureus, 24 h
Description: (§1) The determination of the biofilm eradication potential of NPs and ATBs was performed as previously described. Briefly, 100 µL of bacterial inoculum (1.5 × 10^6 CFU/mL) and 100 µL of MHB + 1% glucose were introduced into the microplate, incubated at 37°C for 24 h, and the microplate was gently emptied and washed three times with PBS. Then, 200 µL of ATBs or NPs at respective concentrations ranging from 8 to 1024 µg/mL and from 16 to 2048 µg/mL were incubated at 37°C for 24 h. Once incubation was completed, the microplate was processed as described above, and the percentage of biofilm eradication was calculated using the formula below. The minimal biofilm eradicating concentration (MBEC) was recorded as the lowest concentration of the test sample that reduces 100% of biofilm:(2) % biofilm eradication=ODcontrol−ODblank−ODtest−ODblank/ODcontrol−ODblank×100.

S. epidermidis biofilm [2] = experiment: Biofilm eradication assay (MBEC, MTT); format: cell-based, Staphylococcus epidermidis; conditions: geometric mean, S. epidermidis (n = 3); for minimal effective concentration: Staphylococcus epidermidis, 24 h
Description: as §1

S. saprophyticus biofilm = experiment: Biofilm inhibition assay (MBIC, MTT); format: cell-based, Staphylococcus saprophyticus; conditions: geometric mean, S. saprophyticus (n = 3); for minimal effective concentration: Staphylococcus saprophyticus, 24 h
Description: (§2) The biofilm formation inhibitory activity of NPs and ATBs was carried out according to the method previously described. A total of 100 µL of bacterial inoculum (1.5 × 10^6 CFU/mL) was used, and 100 µL of each sample was added to the microplate to achieve final concentrations ranging from 0.25 µg/mL to 128 µg/mL for ATBs and from 8 µg/mL to 1024 µg/mL for NPs. Then, the microplate was incubated at 37°C for 24 h. After incubation, the plates were gently emptied and washed three times with a phosphate buffer solution at pH 7.2. Then, the MTT solution (0.5 mg/mL) prepared in PBS was introduced into each well, and the microplate was further incubated at 37°C for 24 h. Untreated wells containing bacterial suspension and MHB supplemented with 1% glucose were considered positive controls, and wells containing only MHB+1% glucose without bacteria were used as blanks. After incubation, the MTT solution was aspirated, then 150 µL of DMSO was introduced to dissolve the formazan crystal formed by viable bacteria, and the optical density (OD) was measured at 570 nm using a microplate reader (VERSA-max). The percentage of biofilm inhibition was calculated using the formula below, and the minimal biofilm inhibitory concentration (MBIC) was recorded as the lowest concentration of NPs or ATBs that inhibited 100% of biofilm:(1) % biofilm inhibition=ODcontrol−ODblank−ODtest−ODblank/ODcontrol−ODblank×100.

S. aureus = experiment: MIC and MBC, broth microdilution; format: cell-based, Staphylococcus aureus; conditions: geometric mean, S. aureus (n = 3)
Description: (§3) Seven clinical isolates of Staphylococcus spp. including 2 S. aureus, 3 S. saprophyticus, and 2 S. epidermidis were used. They were isolated from urine samples in our previous study. Two reference strains (S. aureus ATCC1026 and S. epidermidis ATCC35984) obtained from the American Type Culture Collection were also included. They were kept in the mixture of glycerol and Mueller Hinton Broth (MHB) (1:1) at −20°C, and the activation was achieved using the streak technique on Mueller Hinton agar (MHA) medium.
(§4) The MICs of ATBs and NPs were determined by the broth microdilution method as previously described. NPs and ATBs were, respectively, prepared at 4096 µg/mL and 512 µg/mL and serially diluted twofold with MHB in a 96-well microplate at a volume of 100 µL. Then, the wells were filled with 100 µL of inoculum (1.5 × 10^6 CFU/mL) to give final concentrations ranging from 1024 µg/mL to 0.5 µg/mL and 128 µg/mL to 0.062 µg/mL of NPs and ATBs, respectively. The microplates were incubated for 24 h at 37°C. Wells containing only bacterial inoculum were used as the negative control. After incubation, a volume of 40 µL of INT solution (0.2 mg/mL) was added to each well, and the microplate was incubated at 37°C for 30 min. Viable bacteria cells change the yellow dye of INT to a pink color. The MIC was considered as the lowest concentration of the sample at which there was no change in the coloration of the medium, corresponding to the complete inhibition of microbial growth.
(§5) All tests were performed in triplicate.

[3] = test system: Staphylococcus epidermidis biofilm; experiment: Checkerboard combination assay, biofilm eradication; format: cell-based; conditions: for MBEC Alone ATB: antibiotic alone
Description: The effect of the combination of ATBs with NPs on the preformed biofilm was evaluated by determining the FICI, as described above for biofilm formation, with slight modifications. After biofilm formation for 24 h, the plate was gently emptied and washed three times with PBS. Then, 50 µL of ATBs and 50 µL of NPs were introduced to the plate. The final concentration ranges from 0.0625 to 128 µg/mL and from 4 to 512 µg/mL for ATBs and NPs, respectively, and is incubated at 37°C for 24 h. After incubation, the medium was gently removed, and the plate was washed three times with PBS. At the end of the incubation time, the MTT reduction assay was performed, and the MBEC was determined. To assess the effect of the combination, the FICI was calculated and interpreted as described above.

S. saprophyticus = experiment: MIC and MBC, broth microdilution; format: cell-based, Staphylococcus saprophyticus; conditions: geometric mean, S. saprophyticus (n = 3)
Description: as §3, §4, §5

S. epidermidis biofilm [4] = experiment: Biofilm inhibition assay (MBIC, MTT); format: cell-based, Staphylococcus epidermidis; conditions: geometric mean, S. epidermidis (n = 3); for minimal effective concentration: Staphylococcus epidermidis, 24 h
Description: as §2

[5] = test system: Staphylococcus epidermidis biofilm; experiment: Checkerboard combination assay, biofilm inhibition; format: cell-based
Description: (§6) The effect of the combination of ATBs with NPs on biofilm formation was evaluated by determining the FICI, as described above for planktonic cells, except that the MHB was supplemented with 1% glucose.
(§7) The lowest MBICs of ATBs or NPs that inhibited metabolic activity in the biofilm were determined as described above. The FICI was used to perform the effect of combination and calculated as follows: FICI: (MBIC of ATBs in combinations/MBIC of ATBs alone) + (MBIC of NP in the combinations/MBIC of NP alone). FICI was interpreted as indicated above.

[6] = test system: Staphylococcus saprophyticus biofilm; experiment: Checkerboard combination assay, biofilm inhibition; format: cell-based
Description: as §6, §7

[7] = test system: Staphylococcus aureus biofilm; experiment: Checkerboard combination assay, biofilm inhibition; format: cell-based; conditions: for MBIC alone, ATB: antibiotic alone
Description: as §6, §7

S. aureus biofilm [8] = experiment: Biofilm inhibition assay (MBIC, MTT); format: cell-based, Staphylococcus aureus; conditions: geometric mean, S. aureus (n = 3); for minimal effective concentration: Staphylococcus aureus, 24 h
Description: as §2

[9] = Staphylococcus aureus, read-out: MIC
[10] = S. epidermidis biofilm eradication, mean MBEC
[11] = Staphylococcus saprophyticus, read-out: MIC
[12] = antibiotic alone, S. saprophyticus biofilm inhibition
[13] = Staphylococcus aureus, natural products, read-out: MBC
[14] = Staphylococcus saprophyticus, natural products, read-out: MBC
[15] = natural product alone, S. epidermidis biofilm inhibition
[16] = natural product alone, S. saprophyticus biofilm inhibition
[17] = natural product alone, S. aureus biofilm inhibition
[18] = S. epidermidis, biofilm inhibition, mean
[19] = S. saprophyticus, biofilm inhibition, mean
[20] = S. aureus, biofilm inhibition, mean

Row | SMILES | minimal effective concentration (S. aureus biofilm [1]) [µg/mL] | minimal effective concentration (S. epidermidis biofilm [2]) [µg/mL] | minimal effective concentration (S. saprophyticus biofilm) [µg/mL] | MIC (S. aureus; [9]) [µg/mL] | MBEC Alone ATB [3, 10] [µg/mL] | MIC (S. saprophyticus; [11]) [µg/mL] | minimal effective concentration (S. epidermidis biofilm [4]) [µg/mL] | MBIC alone, ATB [6, 12] [µg/mL] | MBIC alone, ATB ([7]; S. aureus biofilm inhibition) [µg/mL] | minimal effective concentration (S. aureus biofilm [8]) [µg/mL] | MBC (S. aureus; [13]) [µg/mL] | MBC (S. saprophyticus; [14]) [µg/mL] | MBIC alone, NPs [5, 15] [µg/mL] | MBIC alone, NPs [6, 16] [µg/mL] | MBIC alone, NPs [7, 17] [µg/mL] | MBIC alone, NPs [5, 18] [µg/mL] | MBIC alone, NPs [6, 19] [µg/mL] | MBIC alone, NPs [7, 20] [µg/mL] | other results
1 | CC[C@H]1OC(=O)[C@H](C)[C@@H](O[C@H]2C[C@@](C)(OC)[C@@H](O)[C@H](C)O2)[C@H](C)[C@@H](O[C@@H]2O[C@H](C)C[C@H](N(C)C)[C@H]2O)[C@](C)(O)C[C@@H](C)C(=O)[C@H](C)[C@@H](O)[C@]1(C)O [Erythromycin, erythromycin] | 42.8 | 18.7 | 27.3 | 108 (≈ 147 µM) | 18.66 | 4.66 (≈ 6.35 µM) | 24 | 27.33 | 42.83 | 42.8 |  |  |  |  |  |  |  |  | MBC (S. aureus; Staphylococcus aureus, antibiotics, read-out: MBC): > 128 µg/mL; MBC (S. saprophyticus; Staphylococcus saprophyticus, antibiotics, read-out: MBC): > 128 µg/mL; MBIC alone, ATB ([5]; antibiotic alone, S. epidermidis biofilm inhibition): 24 µg/mL
2 | O=C(O)c1cc(O)c(O)c(O)c1 [Gallic acid, 3,4,5-trihydroxybenzoic acid] | 299 | 267 | 427 | 427 (≈ 2510 µM) |  | 427 (≈ 2510 µM) | 512 |  |  | 512 | > 1020 | > 1020 | 512 | 426.66 | 512 |  |  |  | MBEC Alone NPs ([3]; S. epidermidis biofilm eradication, natural product alone, mean MBEC, listed as Gal): 266.66 µg/mL and 298.66 µg/mL and 426.66 µg/mL
3 | NC[C@H]1O[C@H](O[C@H]2[C@H](O)[C@@H](O[C@H]3O[C@H](CO)[C@@H](O)[C@H](N)[C@H]3O)[C@H](N)C[C@@H]2N)[C@H](O)[C@@H](O)[C@@H]1O [Kanamycin, kanamycin] |  |  |  |  | 13.33 |  |  | 4.083 | 1.83 |  |  |  |  |  |  |  |  |  | MBEC (S. aureus biofilm [1]): 14.66 µg/mL; MBEC (S. epidermidis biofilm [2]): 13.33 µg/mL; MBIC (S. saprophyticus biofilm): 4.08 µg/mL; MBC (S. aureus; antibiotics): 69.33 µg/mL (≈ 143 µM); MIC (S. aureus): 22.66 µg/mL (≈ 46.8 µM); MBC (S. saprophyticus; antibiotics): — (> 128 µg/mL for ATBs); MIC (S. saprophyticus): 14 µg/mL (≈ 28.9 µM); MBIC (S. epidermidis biofilm [4]): 24.66 µg/mL; MBIC alone, ATB [5, 18]: 24.66 µg/mL; MBIC alone, ATB ([5]; antibiotic alone, S. epidermidis biofilm inhibition, listed as Kan): 24.66 µg/mL and 43.33 µg/mL; MBIC alone, ATB [6, 19]: 4.08 µg/mL; MBIC (S. aureus biofilm [8]): 1.08 µg/mL
4 | CC1=CC(=O)c2c(O)cccc2C1=O [Plumbagin, plumbagin] | 32 | 10.7 | 6.66 | 6 (≈ 31.9 µM) |  | 8.66 (≈ 46 µM) | 8 |  |  | 10.7 | > 1020 | > 1020 | 8 | 6.66 |  | 8 | 16 | 10.66 | MBEC Alone NPs ([3]; S. epidermidis, biofilm eradication, mean, listed as Plu): 13.33 µg/mL and 16 µg/mL; MBIC alone, NPs ([7]; natural product alone, S. aureus biofilm inhibition, listed as Pb): 10.66 µg/mL
5 | Cc1ccc(C(C)C)c(O)c1 [Thymol, thymol] | 107 | 107 | 128 | 299 (≈ 1990 µM) |  | 341 (≈ 2270 µM) | 213 |  |  | 341 | > 1020 | > 1020 | 213.33 | 128 | 341.33 | 213.33 | 128 | 341.33 | MBEC Alone NPs ([3]; S. epidermidis biofilm eradication, natural product alone, mean MBEC, listed as Thy): 128 µg/mL and 106.66 µg/mL
